From patent US20250304587A1, “WEE1 INHIBITOR, PREPARATION THEREFOR AND USE THEREOF” (JIANGSU TASLY DIYI PHARMACEUTICAL CO., LTD., priority 2022, published 2025)
Converted amounts (≈) assume the structure as drawn. Where two headings read alike, the source gives them in different places.

What was measured:
[1] = tested on: human pancreatic cancer BxPC3 cells xenograft; assay: Anti-tumor efficacy, BxPC3 xenograft (CDX model); format: in vivo, female BALB/c nude mice; details: after 40 days
Description: (§1) Experimental method: BALB/c nude mice (provided by Charles River) were selected, 7-8 weeks old and weighing 19-22 g.
(§2) The prepared and cultured BxPC3 cells were counted, and 1×10^7 BxPC3 cells were mixed in 0.1 mL PBS solution and inoculated subcutaneously on the right wing of mice. When the cells became tumors and the average tumor volume reached 190 mm^3, they began to be grouped and administered. […] The experimental indicator was to check whether the tumor growth was inhibited. The formula for calculating the tumor volume was: V=0.5a×b^2, where a and b respectively indicated the long and short diameters of the tumor.
(§3) The anti-tumor effects of the compounds were evaluated by TGI (%).

[2] = Membrane permeability in Caco-2 model; format: in vitro ADME; details: human, Caco-2, pH 7.4; Caco2, 10 μM, 90 min
Summary of the method: (§4)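 Caco-2 monolayers grown 21-28 days post-seeding, integrity checked by Lucifer Yellow Papp. Apical and basolateral compound levels measured by LC-MS/MS against a standard curve to derive apparent permeability (Papp).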

[3] = Metabolic stability in liver microsomes, mouse; format: in vitro ADME
Description: (§5) Test Example 3: Evaluation of the Metabolic Stability of Liver Microsomes (Mouse and Human) In Vitro Microsomes were taken out from the −80° C. refrigerator, rapidly melted in a 37° C. water bath and placed on ice until ready to use. The test article was diluted with DMSO to prepare a 10 mM stock solution, and then diluted with acetonitrile to a 0.5 mM secondary stock solution. […] NADPH was diluted with Buffer C to a working solution of 6 mM for the starter solution. An acetonitrile solution containing an internal standard was prepared as the precipitant, and Verapamil-HCl was chosen as the internal standard at a concentration of 4 ng/ml. […] A separate plate with pointed bottom wells, noted as a precipitation plate, was added with 135 μL precipitant per well; 0 h samples were transferred to the plate after 10 min incubation and 15 μL of starter solution was added; the plate was placed on ice before centrifugation. The diluted starter solution was added in sufficient quantity to the dispensing plate to facilitate the multichannel pipette aspiration operation. The reaction was carried out on a warm incubation shaker and 15 μL of starter solution/sample is added to the plate using a multichannel pipette. The reaction was mixed with a slight shake to initiate the reaction, which was accurately timed and recorded using a timer; After the reaction time had elapsed, all the solution in the plate was aspirated using the multichannel pipette and added to the precipitation plate to terminate the reaction at that point in time. After all reactions had been terminated, the plates were shaken for ten minutes on a plate shaker at 600 rpm to precipitate the protein. The plate was centrifuged at 4° C. for 15 minutes at maximum rpm. 80 μL of supernatant was taken, 320 μL of pure water was added and mixed for LC-MS analysis.

[4] = Saturated solubility in buffer at different pH; format: physicochemical; details: for solubility at 24 h: buffer solution, aqueous buffer, thermodynamic from solid
Description: The compound was placed in a buffer solution and shaken at constant temperature for 24 h. […] Chromatographic conditions: C18 column, mobile phase A: 0.02 M potassium dihydrogen phosphate:acetonitrile=90:10, mobile phase B: acetonitrile; V: 1.0 ml/min, T: 35° C., λ: 210 nm.

[5] = Metabolic stability in liver microsomes, dog; format: in vitro ADME
Description: as §5, with “Microsomes” for “Test Example 3: Evaluation of the Metabolic Stability of Liver Microsomes (Mouse and Human) In Vitro Microsomes”

[6] = tested on: human colon cancer HT-29 cells xenograft; assay: Anti-tumor efficacy, HT-29 xenograft (CDX model); format: in vivo, female BALB/c nude mice; details: HT-29 model, after 24 days
Description: as §1
as §2, with “HT-29” for “BxPC3”, “5×10^6 HT-29” for “1×10^7 BxPC3”, “120” for “190”
as §3

Caco-2 cells = assay: Membrane permeability in Caco-2 model; format: in vitro ADME
Summary of the method: as §4

[7] = Toxicity in rats after 14 consecutive days of administration, survival; details: 14 days continuous administration, compared with controls

C=CCn1c(=O)c2cnc(Nc3ccc(N4CCN(C)CC4)cc3)nc2n1-c1cccc(C(C)(C)O)n1 [AZD1775, reference compound]
TGI ([1]; 60 mg/kg qd): 57.6% | Papp A→B at 90 min, 10 µM [2]: 0.8 ×10⁻⁶ cm/s | Papp B→A at 90 min, 10 µM [2]: 15.2 ×10⁻⁶ cm/s | half-life at 1 µM ([3]; read-out: T1/2 liver microsomes Mouse): 26 min | solubility at 24 h ([4]; pH 5.0, 37° C., read-out: Saturated solubility pH 5.0): 410 µg/mL (≈ 819 µM) | solubility at 24 h ([4]; pH 6.5, 37° C., read-out: Saturated solubility pH 6.5): 50 µg/mL (≈ 99.9 µM) | solubility at 24 h ([4]; pH 7.4, 37° C., read-out: Saturated solubility pH 7.4): 20 µg/mL (≈ 40 µM) | half-life at 1 µM ([5]; read-out: T1/2 liver microsomes Dog): 10.8 min | TGI ([6]; 60 mg/kg qd): 54.5%

[2H][C@]1(O)c2nc(-n3c4nc(Nc5ccc(N6CCC7(CCN(C)CC7)CC6)cc5)ncc4c(=O)n3CC=C)ccc2CCC12CC2 [Compound 37b]
TGI ([1]; 30 mg/kg qd): 70.1% | TGI ([1]; 60 mg/kg qd): 72.4% | TGI ([1]; 120 mg/kg qd): 100.9% | Efflux Ration (Caco-2 cells; Caco2): 21.06 | Papp A to B (Caco-2 cells; Caco2, 10 μM, 90 min): 0.46 10^−6 cm/s | Papp B to A (Caco-2 cells; Caco2, 10 μM, 90 min): 9.69 10^−6 cm/s | T1/2 liver microsomes Mouse [3]: 37.8 min | Saturated solubility pH 5.0 ([4]; pH 5): 0.37 mg/mL | Saturated solubility pH 6.5 ([4]; pH 6.5): 0.37 mg/mL | Saturated solubility pH 7.4 ([4]; pH 7.4): 0.62 mg/mL | T1/2 liver microsomes Dog [5]: 69.59 min | TGI ([6]; 30 mg/kg qd): 34.7% | TGI ([6]; 60 mg/kg qd): 57.7% | TGI ([6]; 120 mg/kg qd): 100.0% | Survival rate of rats (in words) [7]: significantly better than that in the control compound AZD1775 group and the control compound ZnC3 group
